Measurements from patent publication US20210395650A1, “COMPOUNDS STABILIZING HYDROLASES IN LIQUIDS” (BASF SE, priority 2018, published 2021).

Target: T1, Savinase® 16.0L (Lederbergia lenta, UniProt P29600)
T1 construct: purchased Sigma-Aldrich
T1 sequence (P29600 1-269): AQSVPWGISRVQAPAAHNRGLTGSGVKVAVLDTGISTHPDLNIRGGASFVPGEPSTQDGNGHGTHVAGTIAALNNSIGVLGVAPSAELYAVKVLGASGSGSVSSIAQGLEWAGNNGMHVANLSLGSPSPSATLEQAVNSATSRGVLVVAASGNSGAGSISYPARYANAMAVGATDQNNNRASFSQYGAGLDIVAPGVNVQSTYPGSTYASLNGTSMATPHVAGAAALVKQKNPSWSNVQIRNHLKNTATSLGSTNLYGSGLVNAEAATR
Assay: Protease storage stability in liquid formulations at 37° C. (Suc-AAPF-pNA assay)
Format: biochemical
Conditions: 0.7 wt% Savinase 16.0 L
Procedure: The storage stability of protease was assessed at 37° C.
Base test formulations were manufactured by making base formulations I to V by mixing the components according to Table 1.
Protease used: Savinase® 16.0L (CAS-No. 9014-01-1, EC-No. 232-752-2) was purchased from Sigma-Aldrich.
The respective component (a) or comparative compound was added, if applicable, to the respective base formulation in amounts as indicated in Table 1.
The amount of protease as provided in Table 1 refers to active protein.
Water was added to accomplish the balance to 100.
Savinase activity at certain points in time as indicated in Table 2 was be determined by employing Succinyl-Ala-Ala-Pro-Phe-p-nitroanilide (Suc-AAPF-pNA, short AAPF) as substrate. pNA is cleaved from the substrate molecule by proteolytic cleavage, resulting in release of yellow color of free pNA which was determined by measuring OD405. Measurements were done at 20° C.
The proteolytic activity values provided in Table 3 were calculated referring to the 100% value determined in the reference formulation at the time 0.
The nomenclature of formulations is as follows: the Roman number before the full stop characterizes the base formulation, the Arabian number the type of compound (A. # compound according to invention (component (a)); (B. #) comparative compound).

[1] = base formulation I, 2.5 wt% compound, 3 d
[2] = base formulation I, 2.5 wt% compound, 7 d
[3] = base formulation I, 2.5 wt% compound, 14 d
[4] = base formulation I, 2.5 wt% compound, 21 d
[5] = base formulation I, 2.5 wt% compound, 28 d
[6] = base formulation I, 2.5 wt% compound, 35 d
[7] = base formulation II, 2.5 wt% compound, 3 d
[8] = base formulation II, 2.5 wt% compound, 7 d
[9] = base formulation II, 2.5 wt% compound, 14 d
[10] = base formulation II, 2.5 wt% compound, 21 d
[11] = base formulation II, 2.5 wt% compound, 28 d
[12] = base formulation II, 2.5 wt% compound, 35 d
[13] = base formulation III, 2.0 wt% compound, 3 d
[14] = base formulation III, 2.0 wt% compound, 7 d
[15] = base formulation III, 2.0 wt% compound, 14 d
[16] = base formulation III, 2.0 wt% compound, 21 d
[17] = base formulation III, 2.0 wt% compound, 28 d
[18] = base formulation III, 2.0 wt% compound, 35 d

Compound	protease activity in the course of time of storage at 37° C. [1] [%]	protease activity in the course of time of storage at 37° C. [2] [%]	protease activity in the course of time of storage at 37° C. [3] [%]	protease activity in the course of time of storage at 37° C. [4] [%]	protease activity in the course of time of storage at 37° C. [5] [%]	protease activity in the course of time of storage at 37° C. [6] [%]	protease activity in the course of time of storage at 37° C. [7] [%]	protease activity in the course of time of storage at 37° C. [8] [%]	protease activity in the course of time of storage at 37° C. [9] [%]	protease activity in the course of time of storage at 37° C. [10] [%]	protease activity in the course of time of storage at 37° C. [11] [%]	protease activity in the course of time of storage at 37° C. [12] [%]	protease activity in the course of time of storage at 37° C. [13] [%]	protease activity in the course of time of storage at 37° C. [14] [%]	protease activity in the course of time of storage at 37° C. [15] [%]	protease activity in the course of time of storage at 37° C. [16] [%]	protease activity in the course of time of storage at 37° C. [17] [%]	protease activity in the course of time of storage at 37° C. [18] [%]	other results
Diethylcitrate [A.7]	95	91	85	81	76	69	98	96	94	90	87	83	96	93	84	83	76	72	protease activity in the course of time of storage at 37° C. (base formulation I, 2.5 wt% compound, T0): 100%; protease activity in the course of time of storage at 37° C. (base formulation II, 2.5 wt% compound, T0): 98%; protease activity in the course of time of storage at 37° C. (base formulation III, 2.0 wt% compound, T0): 100%
CC(=O)OCC(COC(C)=O)OC(C)=O [B.4, glyceroltriacetate, reference compound]	91	84	70	66	61	56	87	80	73	58	57	54	–	–	–	–	–	–	–
O=C(O)CC(O)(CC(=O)O)C(=O)O [B.1, citric acid, reference compound]	94	86	76	67	62	57	–	–	–	–	–	–	92	84	75	65	60	53	protease activity in the course of time of storage at 37° C. (base formulation V, 2.0 wt% compound, 3 d): 93%; protease activity in the course of time of storage at 37° C. (base formulation V, 2.0 wt% compound, 7 d): 86%; protease activity in the course of time of storage at 37° C. (base formulation V, 2.0 wt% compound, 14 d): 75%; protease activity in the course of time of storage at 37° C. (base formulation V, 2.0 wt% compound, 21 d): 65%; protease activity in the course of time of storage at 37° C. (base formulation V, 2.0 wt% compound, 28 d): 57%; protease activity in the course of time of storage at 37° C. (base formulation V, 2.0 wt% compound, 35 d): 50%
